Test results from US8883426B2, “Use of therapeutically effective lipids and method for producing organ-/tissue-specific therapeutically effective lipids” (PAT GmbH, priority 2005, dated 2014).

Experiments:
[1] = system: HepG2-cells (hepatocytes); assay: Selective enrichment of fluorescence-marked conjugate in HepG2-cells, fluorescence microscopy; type: cell-based; conditions: 50 uM, 37° C., 10 min., washed, treated with 5% beef-serum albumin
Description: In order to control the selective enrichment of the LysoPE-DOCA-compound HepG2-cells (hepatocytes) were incubated at 37° C. with a fluorescence-marked ursodeoxycholate-1-palmitoyl, 2-NBD-PE-conjugate (at 50 uM) for 10 min., washed, and subsequently treated with 5% beef-serum albumin in order to remove the conjugate from the exterior plasma membrane of the cells. Subsequently the cells are microscopic controlled in phase contrast and in fluorescent light.

colitis ulcerosa = conditions: cited from earlier work
colon mucosa = conditions: topic application, rat models, colitis induced by acetic acid and trinitro-benzosulfonic acid; cited from earlier work
[2] = oral, retarding packaged form, compared to placebo control group

| Substance | enrichment in the cells under fluorescent-microscopic observation [1] | inflammatory activity of colitis ulcerosa (colitis ulcerosa; oral, retarding packaged form with release in the lower small intestine and the colon) | improvement of the clinical activity on average (colitis ulcerosa; [2]) [%] | patients treated in whom the improvement of clinical activity was achieved (colitis ulcerosa; [2]) [%] | patients reaching clinical remission (colitis ulcerosa; within three months) | protection of colon mucosa from induced colitis (colon mucosa) |
| --- | --- | --- | --- | --- | --- | --- |
| ursodeoxycholate-1-palmitoyl, 2-NBD-PE-conjugate | intense yellow-green coloration in the cytoplasm but not in the core of the cell |  |  |  |  |  |
| phosphatidyl choline |  | significantly suppresses the inflammatory activity | 70 | 90 | more than half of the patients reached even clinical remission | protecting colon mucosa from colitis |
